Test results reported in patent publication US20090012045A1, “Methods of Treating Cell Proliferative Disorders” (RIGEL PHARMACEUTICALS, INC., priority 2007, published 2009).

Columns and labels:
Ret = molecular target: T1, Ret (Homo sapiens, UniProt P07949); assay: Ret autophosphorylation, fluorescence polarization assay; assay type: biochemical; conditions: 4 ng Ret, 5 μM ATP, 20 min; read-out: IC50 for inhibition of Ret autophosphorylation
T1 construct: purchased Upstate 14-570
T1 sequence (P07949 658-1114 limits assumed): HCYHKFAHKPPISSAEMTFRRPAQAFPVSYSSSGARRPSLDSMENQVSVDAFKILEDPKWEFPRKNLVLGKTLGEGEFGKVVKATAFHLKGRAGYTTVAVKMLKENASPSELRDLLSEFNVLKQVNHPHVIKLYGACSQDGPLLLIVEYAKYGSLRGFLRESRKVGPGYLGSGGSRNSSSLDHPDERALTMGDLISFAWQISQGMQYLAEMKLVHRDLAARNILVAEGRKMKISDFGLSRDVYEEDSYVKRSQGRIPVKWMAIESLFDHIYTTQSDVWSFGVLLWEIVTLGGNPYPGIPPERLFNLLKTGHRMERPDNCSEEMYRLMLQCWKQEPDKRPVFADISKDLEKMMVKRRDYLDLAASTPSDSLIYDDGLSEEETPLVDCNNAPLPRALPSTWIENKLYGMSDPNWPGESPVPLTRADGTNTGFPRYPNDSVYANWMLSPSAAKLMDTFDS

Ret (h) = Ret (h) (Homo sapiens, UniProt P07949); assay: RET kinase activity, [γ-33P-ATP] filter assay; assay type: biochemical
Chain of Ret (h) (P07949 29-1114): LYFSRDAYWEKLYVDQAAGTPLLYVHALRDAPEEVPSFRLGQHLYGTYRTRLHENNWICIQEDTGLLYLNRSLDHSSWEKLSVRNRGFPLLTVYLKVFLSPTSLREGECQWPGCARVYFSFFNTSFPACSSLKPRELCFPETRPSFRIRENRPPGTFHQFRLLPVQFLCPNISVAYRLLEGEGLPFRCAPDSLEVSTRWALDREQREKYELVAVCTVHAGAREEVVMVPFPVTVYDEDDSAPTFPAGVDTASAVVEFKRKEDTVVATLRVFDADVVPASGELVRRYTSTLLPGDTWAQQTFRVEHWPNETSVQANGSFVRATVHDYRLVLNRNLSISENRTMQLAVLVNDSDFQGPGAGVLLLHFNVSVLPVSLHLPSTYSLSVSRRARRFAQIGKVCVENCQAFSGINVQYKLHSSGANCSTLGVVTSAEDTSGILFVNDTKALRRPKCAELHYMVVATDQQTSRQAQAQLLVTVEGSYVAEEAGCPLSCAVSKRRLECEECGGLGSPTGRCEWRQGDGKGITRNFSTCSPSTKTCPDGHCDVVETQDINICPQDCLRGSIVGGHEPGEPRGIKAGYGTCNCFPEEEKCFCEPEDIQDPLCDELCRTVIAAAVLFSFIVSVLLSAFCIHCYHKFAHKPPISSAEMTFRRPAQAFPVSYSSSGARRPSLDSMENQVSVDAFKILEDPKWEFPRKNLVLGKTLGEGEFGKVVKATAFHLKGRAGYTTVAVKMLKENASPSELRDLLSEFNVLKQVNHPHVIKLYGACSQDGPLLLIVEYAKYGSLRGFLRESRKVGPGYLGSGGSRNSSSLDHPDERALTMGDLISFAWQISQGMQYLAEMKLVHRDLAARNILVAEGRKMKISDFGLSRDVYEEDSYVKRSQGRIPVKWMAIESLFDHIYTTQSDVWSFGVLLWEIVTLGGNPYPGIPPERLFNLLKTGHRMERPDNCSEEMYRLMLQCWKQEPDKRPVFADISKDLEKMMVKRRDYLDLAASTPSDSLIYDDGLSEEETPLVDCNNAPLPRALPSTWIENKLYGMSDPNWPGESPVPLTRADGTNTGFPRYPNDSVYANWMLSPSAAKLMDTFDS

[1] = in vitro metabolism of prodrug to active drug; assay type: in vitro ADME; conditions: rat plasma, rat hepatic and intestinal microsomal preparations
Description: Although phosphate-containing prodrugs suitable for oral administration are of interest, skilled artisans will appreciate that prodrugs including phosphate-containing progroups R^p can be administered via other routes of administration, as phosphatases are distributed throughout the body. […] Thus, the only requirement is that the particular phosphate-containing progroup R^p selected should be removable under the conditions of intended use.

[2] = in vivo metabolism of prodrug to active drug
Description: It has recently been discovered that a phosphate-containing prodrug according to the structure illustrated below (Compound P-1):
19, 2006 (US2006/0211657 A1), at paragraphs 134-142 and 146 of the printed publication.

[3] = compound concentration 0.03 micromoles
[4] = compound concentration 1 micromoles
[5] = compound concentration 0.3 micromoles
[6] = compound concentration 0.02 micromoles
[7] = compound concentration 0.2 micromoles

Row | IC50 (Ret) [nM] | RET kinase autophosphorylation activity as a percentage of control RET kinase activity (Ret (h); [4]) [%] | RET kinase autophosphorylation activity as a percentage of control RET kinase activity (Ret (h); [7]) [%] | Molecule | also measured
1 | 11.8 | 0 | – | 2-(3-(4-(2,2-difluoro-3-oxo-3,4-dihydro-2H-pyrido[3,2-b][1,4]oxazin-6-ylamino)-5-fluoropyrimidin-2-ylamino)phenoxy)-N-methylacetamide [Compound 2] | RET kinase autophosphorylation activity as a percentage of control RET kinase activity (Ret (h); [3]): 0%; RET kinase autophosphorylation activity as a percentage of control RET kinase activity (Ret (h); compound concentration 3 micromoles): 0%
2 | 16.5 | – | – | Cc1nc2ccc(Nc3ncc(F)c(Nc4ccc5c(c4)NC(=O)C(C)(C)S5)n3)cc2[nH]1 [Compound 3, 6-(5-fluoro-2-(2-methyl-1H-benzo[d]imidazol-6-ylamino)pyrimidin-4-ylamino)-2,3-dimethyl-2H-benzo[b][1,4]thiazin-3(4H)-one] | –
3 | 7.3 | – | – | COc1cc(Nc2ncc(F)c(Nc3ccc4c(n3)NC(=O)C(C)(C)O4)n2)cc(O)c1OC [Compound 4, 6-(5-fluoro-2-(3-hydroxy-4,5-dimethoxy-phenylamino)pyrimidin-4-ylamino)-2,2-dimethyl-2H-pyrido[3,2-b][1,4]oxazin-3(4H)-one] | –
4 | – | 0 | – | Cc1noc(COc2ccc(Nc3nc(Nc4cccc(O)c4)ncc3F)cc2)n1 [Compound 5, 3-(5-fluoro-4-(4-((3-methyl-1,2,4-oxadiazol-5-yl)methoxy)phenylamino)pyrimidin-2-ylamino)phenol] | RET kinase autophosphorylation activity as a percentage of control RET kinase activity (Ret (h); compound concentration 0.01 micromoles): 0%; RET kinase autophosphorylation activity as a percentage of control RET kinase activity (Ret (h); [3]): 0%; RET kinase autophosphorylation activity as a percentage of control RET kinase activity (Ret (h); compound concentration 0.1 micromoles): 0%; RET kinase autophosphorylation activity as a percentage of control RET kinase activity (Ret (h); [5]): 0%
5 | – | 4 | 26 | Cc1cc(Nc2cc(N3CCN(C)CC3)nc(Sc3ccc(NC(=O)C4CC4)cc3)n2)[nH]n1 [Compound 6, N-(4-(4-(3-methyl-1H-pyrazol-5-ylamino)-6-(4-methylpiperazin-1-yl)pyrimidin-2-ylthio)phenyl)cyclopropanecarboxamide] | RET kinase autophosphorylation activity as a percentage of control RET kinase activity (Ret (h); [6]): 78%
6 | – | 2 | 34 | Cc1cc(Nc2ncc(F)c(NC3CCCC3C(N)=O)n2)ccc1N1CCN(C)CC1 (centres unmarked) [Compound 7, 2-(5-fluoro-2-(3-methyl-4-(4-methylpiperazin-1-yl)phenylamino)pyrimidin-4-ylamino)cyclo-pentanecarboxamide] | RET kinase autophosphorylation activity as a percentage of control RET kinase activity (Ret (h); [6]): 74%
7 | – | 11 | – | COc1cc(Nc2ncc(F)c(Nc3ccc4c(n3)N(COP(=O)(O)O)C(=O)C(C)(C)O4)n2)cc(OC)c1OC [Compound 9, (6-(5-fluoro-2-(3,4,5-trimethoxyphenylamino)pyrimidin-4-ylamino)-2,2-dimethyl-3-oxo-2H-pyrido[3,2-b][1,4]oxazin-4(3H)-yl)methyldihydrogenphosphate] | RET kinase autophosphorylation activity as a percentage of control RET kinase activity (Ret (h); [5]): 47%; metabolism of prodrug to the active drug Compound 1 [1]: metabolize to the active drug Compound 1; metabolism of prodrug to the active drug Compound 1 [2]: metabolizes in vivo to the corresponding active 2,4-pyrimidinediamine compound
8 | – | 1 | 19 | Cc1ccc(Nc2ncc(F)c(Nc3ccc(OCC#N)cc3)n2)cc1S(N)(=O)=O [Compound 10] | –
